This assay concerns LPS-induced iNOS-dependent NO production. As to the kind of experiment: LPS-induced NO production. The settings on record: Mus musculus, read-out: IC50 (µM) in NOS. Format: cell-based, murine.

The record followed here is PMC3014437 (Bioorganic & medicinal chemistry, 2010).

The IC50 is the concentration that gives 50% inhibition.

`CC(C)[C@@H](C)/C=C/[C@@H](C)[C@H]1CC[C@@H]2[C@]1(C)CC[C@H]1[C@]23C=C[C@]2(C[C@@H](O)CC[C@]12C)OO3` [Compound 37, ergosterol peroxide]: the IC50 is 6.3 ± 1.8 µM. With `COc1cc(C)c(OC)c2c1OCO2` [Compound 8, 4,7-dimethoxy-5-methyl-1,3-benzodioxole], the IC50 amounted to 29.1 ± 4.4 µM. In the case of `C=C(CC[C@@H](C)[C@H]1CC[C@H]2C3=C(C(=O)C[C@]12C)[C@@]1(C)CC[C@@H](O)[C@](C)(O)[C@@H]1C[C@@H]3O)C(C)C(=O)O` (stereo partly shown) [Compound 32, antcin K], the IC50 is over 50 µM.

As to `C=C(C)C#Cc1c(C)c(OC)c(OC)c2c1OCO2` [Compound 2, Benzocamphorin B], the IC50 was found to be 12.1 µM.
